How the values were obtained:
Settings in all cases: 72 h
[1] = tested on: Calu-3; test: relative viability EC50 (midpoint between 100% and the lowest measured viability); higher = less toxic
[2] = tested on: Caco-2; test: as above
[3] = tested on: Vero E6; test: as above
[4] = tested on: U2OS; test: as above
[5] = tested on: Calu-3; test: drug sensitivity score (DSS) for viability; higher = more toxic; extreme values may be limits of the assay
[6] = tested on: Caco-2; test: as above
[7] = tested on: Vero E6; test: as above
[8] = tested on: U2OS; test: as above
[9] = tested on: Calu-3; test: cell viability relative to DMSO; higher = less toxic
[10] = tested on: Caco-2; test: as above
[11] = tested on: Vero E6; test: as above
[12] = tested on: U2OS; test: as above
[13] = tested on: HepG2; test: relative viability EC50 (midpoint between 100% and the lowest measured viability); higher = less toxic
[14] = tested on: HepG2; test: drug sensitivity score (DSS) for viability; higher = more toxic; extreme values may be limits of the assay
[15] = tested on: HepG2; test: cell viability relative to DMSO; higher = less toxic

Structure (SMILES) | relative viability EC50 [1] [µM] | relative viability EC50 [2] [µM] | relative viability EC50 [3] [µM] | relative viability EC50 [4] [µM] | drug sensitivity score [5] | drug sensitivity score [6] | drug sensitivity score [7] | drug sensitivity score [8] | cell viability ([9]; 1 nM) [%] | cell viability ([9]; 10 nM) [%] | cell viability ([9]; 100 nM) [%] | cell viability ([9]; 1000 nM) [%] | cell viability ([9]; 10000 nM) [%] | cell viability ([10]; 1 nM) [%] | cell viability ([10]; 10 nM) [%] | cell viability ([10]; 100 nM) [%] | cell viability ([10]; 1000 nM) [%] | cell viability ([10]; 10000 nM) [%] | cell viability ([11]; 1 nM) [%] | cell viability ([11]; 10 nM) [%] | cell viability ([11]; 100 nM) [%] | cell viability ([11]; 1000 nM) [%] | cell viability ([11]; 10000 nM) [%] | cell viability ([12]; 1 nM) [%] | cell viability ([12]; 10 nM) [%] | cell viability ([12]; 100 nM) [%] | cell viability ([12]; 1000 nM) [%] | cell viability ([12]; 10000 nM) [%] | relative viability EC50 [13] [µM] | drug sensitivity score [14] | cell viability ([15]; 1 nM) [%] | cell viability ([15]; 10 nM) [%] | cell viability ([15]; 100 nM) [%] | cell viability ([15]; 1000 nM) [%] | cell viability ([15]; 10000 nM) [%]
COc1cc(OC)c(OC)cc1C=O [asaraldehyde] | > 10 | > 10 | > 10 | > 10 | 0 | 0 | 0 | 0 | 87 | 108 | 90.5 | 107 | 88.3 | 95.2 | 102 | 94.8 | 104 | 90.1 | 108 | 100 | 98.6 | 103 | 102 | 97.3 | 103 | 97.7 | 105 | 99 | – | – | – | – | – | – | –
C[N+](C)(C)CCOP(=O)(O)OC[C@H](O)CO [choline-alfoscerate] | > 10 | > 10 | – | > 10 | 0 | 0 | – | 0 | 99.9 | 98 | 91.2 | 96.3 | 102 | 106 | 101 | 100 | 100 | 102 | – | – | – | – | – | 105 | 102 | 101 | 99.4 | 98 | – | – | – | – | – | – | –
O=C(O[C@@H]1Cc2c(O)cc(O)cc2O[C@@H]1c1ccc(O)c(O)c1)c1cc(O)c(O)c(O)c1 [epicatechin-gallate-(-)] | > 10 | > 10 | > 10 | > 10 | 0 | 0 | 0 | 0 | 107 | 102 | 93.2 | 91 | 104 | 99.7 | 93.6 | 87.7 | 92 | 100 | 105 | 102 | 99 | 96.1 | 99 | 97.7 | 97.5 | 103 | 97.2 | 101 | – | – | – | – | – | – | –
CC(C)OC(=O)C(C)(C)Oc1ccc(C(=O)c2ccc(Cl)cc2)cc1 [fenofibrate] | > 10 | – | – | > 10 | 0 | – | – | 0 | 103 | 111 | 102 | 36.9 | 94.5 | – | – | – | – | – | – | – | – | – | – | 100 | 100 | 98.4 | 95.7 | 92.6 | – | – | – | – | – | – | –
CCCCCCCC/C=C/CCCCCCCC(=O)OC[C@H]1O[C@@H](n2ccc(N)nc2=O)C(F)(F)[C@@H]1O [gemcitabine-elaidate] | 0.179 | – | – | – | 12.3 | 7.6 | 13.4 | 8.2 | 106 | 90.1 | 69.1 | 57.8 | 35.2 | 95.3 | 96.1 | 79.7 | 68.5 | 67.6 | 105 | 104 | 55.6 | 61.5 | 58.3 | 105 | 110 | 70.2 | 77 | 70.7 | 0.0077 | 25.2 | 104 | 57.6 | 36.5 | 35.8 | 38.5
CC(C(=O)O)c1ccc(N2Cc3ccccc3C2=O)cc1 (stereo not given) [indoprofen] | > 10 | > 10 | > 10 | > 10 | 0 | 0 | 0 | 0 | 84.3 | 104 | 97.1 | 92.9 | 94.1 | 91.9 | 97.8 | 99.5 | 96.5 | 93.8 | 95.9 | 99.6 | 97.8 | 99.4 | 105 | 95.8 | 97.6 | 103 | 100 | 102 | – | – | – | – | – | – | –
c1ccc(Cn2c(N3CCNCC3)nc3ccccc32)cc1 [lerisetron] | > 10 | > 10 | > 10 | > 10 | 0 | 0 | 0 | 0 | 97.6 | 95.8 | 100 | 98 | 96.3 | 100 | 98.6 | 104 | 98.9 | 96.5 | 103 | 100 | 99.4 | 98.7 | 96.6 | 99.2 | 95.4 | 105 | 98.1 | 99.9 | – | – | – | – | – | – | –
CCCc1nc(C(C)(C)O)c(C(=O)OCc2oc(=O)oc2C)n1Cc1ccc(-c2ccccc2-c2nnn[nH]2)cc1 [olmesartan-medoxomil] | > 10 | > 10 | > 10 | > 10 | 0 | 0 | 0 | 0 | 91.5 | 92.9 | 100 | 94.3 | 104 | 92.8 | 96 | 97.5 | 91.4 | 99.3 | 97.6 | 99.2 | 94.6 | 89 | 115 | 95.3 | 93.7 | 99.6 | 96.3 | 99.2 | – | – | – | – | – | – | –
CC(C)(CO)[C@@H](O)C(=O)NCCC(=O)O [pantothenic-acid] | > 10 | – | > 10 | > 10 | 0 | 2.4 | 0 | 0 | 99.6 | 97.7 | 106 | 87.8 | 103 | 101 | 97.3 | 96.7 | 94.8 | 66.4 | 100 | 103 | 95 | 98.5 | 94 | 95.9 | 91.4 | 101 | 92.3 | 97.4 | – | – | – | – | – | – | –
CC(CCc1ccc(O)cc1)NCC(O)c1ccc(O)cc1 (stereo not given) [ractopamine] | > 10 | > 10 | > 10 | > 10 | 0 | 0 | 0 | 0 | 92.8 | 87.2 | 101 | 94.4 | 115 | 91.9 | 84.6 | 104 | 110 | 114 | 115 | 102 | 101 | 99.3 | 104 | 100 | 98.1 | 99.1 | 99.2 | 101 | – | – | – | – | – | – | –
C[C@]12CC[C@H](O)C[C@H]1CC[C@@H]1[C@@H]2CC[C@]2(C)[C@@](O)(c3ccoc3)CC[C@]12O [rostafuroxine] | > 10 | > 10 | > 10 | > 10 | 0 | 0 | 0 | 0 | 96.4 | 88.4 | 103 | 94.7 | 99.6 | 103 | 98 | 99.7 | 97.8 | 109 | 103 | 102 | 99.2 | 96.1 | 99.7 | 102 | 98.6 | 101 | 101 | 101 | – | – | – | – | – | – | –
NCCc1c[nH]c2ccc(O)cc12 [serotonin] | – | > 10 | > 10 | > 10 | – | 0 | 0 | 0 | – | – | – | – | – | 96.8 | 89.1 | 102 | 90.2 | 89.5 | 107 | 102 | 103 | 98.9 | 101 | 91.3 | 95.8 | 94.3 | 97.3 | 92.9 | > 10 | 0 | 89.2 | 91.4 | 94.3 | 88.4 | 107
Cc1nc(-c2cn3c(n2)-c2ccc(-c4cnn(C(C)(C)C(N)=O)c4)cc2OCC3)n(C(C)C)n1 [taselisib] | 0.107 | 0.649 | – | – | 16.9 | 8.9 | 3.5 | 6.2 | 99.2 | 88.1 | 63.6 | 36 | 24 | 106 | 99.6 | 90.8 | 59.4 | 32.4 | 106 | 106 | 97.3 | 85 | 62.6 | 102 | 97.3 | 90.4 | 70.3 | 57.2 | – | 11.6 | 97.4 | 84.8 | 70.3 | 62.7 | 52
COc1ccc2[nH]c([S+]([O-])Cc3ncc(C)c(OC)c3C)nc2n1 (stereo not given) [tenatoprazole] | > 10 | – | – | – | 0 | – | – | – | 109 | 114 | 103 | 96.6 | 105 | – | – | – | – | – | – | – | – | – | – | – | – | – | – | – | > 10 | 0 | 101 | 113 | 104 | 106 | 97.7
O=c1oc2cc(O)ccc2s1 [tioxolone] | – | > 10 | > 10 | > 10 | 1.9 | 0.5 | 0 | 0 | 99.8 | 102 | 97.8 | 98.5 | 64.3 | 90.6 | 97.9 | 88.6 | 107 | 77.2 | 101 | 98.1 | 99.9 | 94.2 | 101 | 96.2 | 103 | 100 | 104 | 95.6 | > 10 | 0 | 104 | 90.4 | 96 | 93.7 | 104
CC(C(=O)O)c1ccc2c(c1)CC(=O)c1ccccc1S2 (stereo not given) [zaltoprofen] | – | > 10 | > 10 | > 10 | – | 0 | 0 | 0 | – | – | – | – | – | 99.7 | 93.8 | 98.4 | 106 | 101 | 93.8 | 101 | 90.9 | 100 | 104 | 99.9 | 97.3 | 99.6 | 98.1 | 101 | > 10 | 0 | 95.5 | 103 | 101 | 110 | 111
OCCN1CCN(CC/C=C2/c3ccccc3Sc3ccc(Cl)cc32)CC1 [zuclopenthixol] | 1.95 | > 10 | > 10 | > 10 | 4.1 | 0.8 | 0.8 | 1.1 | 95.1 | 93.9 | 98.9 | 91.9 | 47.9 | 105 | 80.8 | 92.8 | 94.8 | 82 | 95.2 | 95 | 93 | 93.7 | 79.2 | 99.6 | 96 | 99.6 | 97.1 | 79.2 | – | 1.8 | 93.4 | 101 | 89.9 | 98.6 | 66

— the supplement of paper PMC13380429
